Reference: the supplement of paper PMC10307832

What was measured:
Experiment in all cases: relative viability (nuclei count vs DMSO), 5 days (fraction); higher = more cells survive
NCI-H1666 = tested on: NCI-H1666
Method in brief: (§1)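 Five library-drug doses in √10 steps were combined with a fixed anchor-drug dose, or a single drug was given alone, by pin tool to lung cancer cell lines in 1536-well plates the day after seeding. Nuclei were stained and counted after 5 days. Relative viability is the nuclei count in treated wells over that in vehicle wells, taken as the median of duplicate plates.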

NCI-H23 = tested on: NCI-H23
Method in brief: as §1

NCI-H1792 = tested on: NCI-H1792
Method in brief: as §1

NCI-H838 = tested on: NCI-H838
Method in brief: as §1

NCI-H441 = tested on: NCI-H441
Method in brief: as §1

HCC-44 = tested on: HCC-44
Method in brief: as §1

NCI-H1975 = tested on: NCI-H1975
Method in brief: as §1

HCC-827 = tested on: HCC-827
Method in brief: as §1

NCI-H358 = tested on: NCI-H358
Method in brief: as §1

201T = tested on: 201T
Method in brief: as §1

NCI-H596 = tested on: NCI-H596
Method in brief: as §1

EKVX = tested on: EKVX
Method in brief: as §1

HARA = tested on: HARA
Method in brief: as §1

SK-MES-1 = tested on: SK-MES-1
Method in brief: as §1

BEN = tested on: BEN
Method in brief: as §1

A-427 = tested on: A-427
Method in brief: as §1

NCI-H1437 = tested on: NCI-H1437
Method in brief: as §1

NCI-H650 = tested on: NCI-H650
Method in brief: as §1

HCC-15 = tested on: HCC-15
Method in brief: as §1

LK-2 = tested on: LK-2
Method in brief: as §1

COR-L23 = tested on: COR-L23
Method in brief: as §1

COR-L 105 = tested on: COR-L 105
Method in brief: as §1

Which results are given for `C=C1C(=O)O[C@@H](CCCCCCCC)[C@@H]1C(=O)O` [C-75] + C[C@@H](Oc1cc(-c2cnn(C3CCNCC3)c2)cnc1N)c1c(Cl)ccc(F)c1Cl [Crizotinib] (partner 1 µM)?
relative viability (NCI-H1666; first compound 0.08 µM): 1.19; relative viability (NCI-H1666; first compound 0.253 µM): 1.21; relative viability (NCI-H1666; first compound 0.8 µM): 0.928; relative viability (NCI-H1666; first compound 2.53 µM): 0.847; relative viability (NCI-H1666; first compound 8 µM): 0.614; relative viability (NCI-H23; first compound 0.08 µM): 0.509; relative viability (NCI-H23; first compound 0.253 µM): 0.579; relative viability (NCI-H23; first compound 0.8 µM): 0.522; relative viability (NCI-H23; first compound 2.53 µM): 0.507; relative viability (NCI-H23; first compound 8 µM): 0.534; relative viability (NCI-H1792; first compound 0.08 µM): 1.01; relative viability (NCI-H1792; first compound 0.253 µM): 0.918; relative viability (NCI-H1792; first compound 0.8 µM): 0.919; relative viability (NCI-H1792; first compound 2.53 µM): 0.857; relative viability (NCI-H1792; first compound 8 µM): 0.879; relative viability (NCI-H838; first compound 0.08 µM): 0.786; relative viability (NCI-H838; first compound 0.253 µM): 0.561; relative viability (NCI-H838; first compound 0.8 µM): 0.807; relative viability (NCI-H838; first compound 2.53 µM): 0.792; relative viability (NCI-H838; first compound 8 µM): 0.789; relative viability (NCI-H441; first compound 0.08 µM): 0.857; relative viability (NCI-H441; first compound 0.253 µM): 0.762; relative viability (NCI-H441; first compound 0.8 µM): 0.556; relative viability (NCI-H441; first compound 2.53 µM): 0.46; relative viability (NCI-H441; first compound 8 µM): 0.585; relative viability (HCC-44; first compound 0.08 µM): 0.787; relative viability (HCC-44; first compound 0.253 µM): 0.815; relative viability (HCC-44; first compound 0.8 µM): 0.795; relative viability (HCC-44; first compound 2.53 µM): 0.659; relative viability (HCC-44; first compound 8 µM): 0.719; relative viability (NCI-H1975; first compound 0.08 µM): 0.987; relative viability (NCI-H1975; first compound 0.253 µM): 0.929; relative viability (NCI-H1975; first compound 0.8 µM): 0.908; relative viability (NCI-H1975; first compound 2.53 µM): 0.773; relative viability (NCI-H1975; first compound 8 µM): 0.935; relative viability (HCC-827; first compound 0.08 µM): 0.917; relative viability (HCC-827; first compound 0.253 µM): 0.88; relative viability (HCC-827; first compound 0.8 µM): 0.872; relative viability (HCC-827; first compound 2.53 µM): 0.973; relative viability (HCC-827; first compound 8 µM): 0.946; relative viability (NCI-H358; first compound 0.08 µM): 0.63; relative viability (NCI-H358; first compound 0.253 µM): 0.696; relative viability (NCI-H358; first compound 0.8 µM): 0.59; relative viability (NCI-H358; first compound 2.53 µM): 0.565; relative viability (NCI-H358; first compound 8 µM): 0.618; relative viability (201T; first compound 0.08 µM): 1.05; relative viability (201T; first compound 0.253 µM): 1.05; relative viability (201T; first compound 0.8 µM): 1.01; relative viability (201T; first compound 2.53 µM): 0.966; relative viability (201T; first compound 8 µM): 1.05; relative viability (NCI-H596; first compound 0.08 µM): 1.01; relative viability (NCI-H596; first compound 0.253 µM): 0.937; relative viability (NCI-H596; first compound 0.8 µM): 0.794; relative viability (NCI-H596; first compound 2.53 µM): 0.875; relative viability (NCI-H596; first compound 8 µM): 1.03; relative viability (EKVX; first compound 0.08 µM): 1.01; relative viability (EKVX; first compound 0.253 µM): 0.983; relative viability (EKVX; first compound 0.8 µM): 0.897; relative viability (EKVX; first compound 2.53 µM): 0.85; relative viability (EKVX; first compound 8 µM): 0.893; relative viability (HARA; first compound 0.08 µM): 1; relative viability (HARA; first compound 0.253 µM): 1.15; relative viability (HARA; first compound 0.8 µM): 0.944; relative viability (HARA; first compound 8 µM): 1.05; relative viability (SK-MES-1; first compound 0.08 µM): 1.04; relative viability (SK-MES-1; first compound 0.253 µM): 0.997; relative viability (SK-MES-1; first compound 0.8 µM): 0.953; relative viability (SK-MES-1; first compound 8 µM): 0.941; relative viability (BEN; first compound 0.08 µM): 0.897; relative viability (BEN; first compound 0.253 µM): 0.952; relative viability (BEN; first compound 0.8 µM): 0.921; relative viability (BEN; first compound 2.53 µM): 0.755; relative viability (BEN; first compound 8 µM): 0.825; relative viability (A-427; first compound 0.08 µM): 0.929; relative viability (A-427; first compound 0.253 µM): 1.11; relative viability (A-427; first compound 0.8 µM): 0.883; relative viability (A-427; first compound 2.53 µM): 0.69; relative viability (A-427; first compound 8 µM): 0.898; relative viability (NCI-H1437; first compound 0.08 µM): 0.859; relative viability (NCI-H1437; first compound 0.253 µM): 0.968; relative viability (NCI-H1437; first compound 0.8 µM): 0.936; relative viability (NCI-H1437; first compound 2.53 µM): 0.983; relative viability (NCI-H1437; first compound 8 µM): 0.936; relative viability (NCI-H650; first compound 0.08 µM): 0.679; relative viability (NCI-H650; first compound 0.253 µM): 0.72; relative viability (NCI-H650; first compound 0.8 µM): 0.668; relative viability (NCI-H650; first compound 2.53 µM): 0.597; relative viability (NCI-H650; first compound 8 µM): 0.729; relative viability (HCC-15; first compound 0.08 µM): 0.82; relative viability (HCC-15; first compound 0.253 µM): 0.885; relative viability (HCC-15; first compound 0.8 µM): 0.764; relative viability (HCC-15; first compound 2.53 µM): 0.699; relative viability (HCC-15; first compound 8 µM): 0.835; relative viability (LK-2; first compound 0.08 µM): 0.239; relative viability (LK-2; first compound 0.253 µM): 0.208; relative viability (LK-2; first compound 0.8 µM): 0.231; relative viability (LK-2; first compound 2.53 µM): 0.239; relative viability (LK-2; first compound 8 µM): 0.246; relative viability (COR-L23; first compound 0.08 µM): 0.669; relative viability (COR-L23; first compound 0.253 µM): 0.613; relative viability (COR-L23; first compound 0.8 µM): 0.57; relative viability (COR-L23; first compound 2.53 µM): 0.703; relative viability (COR-L23; first compound 8 µM): 0.642; relative viability (COR-L 105; first compound 0.08 µM): 0.707; relative viability (COR-L 105; first compound 0.253 µM): 0.808; relative viability (COR-L 105; first compound 0.8 µM): 0.949; relative viability (COR-L 105; first compound 2.53 µM): 0.921; relative viability (COR-L 105; first compound 8 µM): 0.566
